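96-well plates; 48 h exposure; 5 concentrations. Endpoints by linear interpolation between flanking doses. Not reached: highest tested concentration assigned. TGI: total growth inhibition.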
Experiments:
Assay in all cases: NCI anticancer screen, dose series, 48 h
786-0 renal = test system: 786-0 renal
A498 renal = test system: A498 renal
A549 NSCLC = test system: A549 NSCLC
ACHN renal = test system: ACHN renal
BT-549 breast = test system: BT-549 breast
CAKI-1 renal = test system: CAKI-1 renal
CCRF-CEM leukemia = test system: CCRF-CEM leukemia
COLO 205 colon = test system: COLO 205 colon
DU-145 prostate = test system: DU-145 prostate
EKVX NSCLC = test system: EKVX NSCLC
HCC-2998 colon = test system: HCC-2998 colon
HCT-116 colon = test system: HCT-116 colon
HCT-15 colon = test system: HCT-15 colon
HL-60(TB) leukemia = test system: HL-60(TB) leukemia
HOP-62 NSCLC = test system: HOP-62 NSCLC
HOP-92 NSCLC = test system: HOP-92 NSCLC
HS 578T breast = test system: HS 578T breast
HT29 colon = test system: HT29 colon
IGROV1 ovarian = test system: IGROV1 ovarian
K-562 leukemia = test system: K-562 leukemia
KM12 colon = test system: KM12 colon
LOX IMVI melanoma = test system: LOX IMVI melanoma
M14 melanoma = test system: M14 melanoma
MALME-3M melanoma = test system: MALME-3M melanoma
MCF7 breast = test system: MCF7 breast
MDA-MB-231 breast = test system: MDA-MB-231 breast
MDA-MB-435 = test system: MDA-MB-435
MDA-N = test system: MDA-N
MOLT-4 leukemia = test system: MOLT-4 leukemia
NCI-H226 lung = test system: NCI-H226 lung
NCI-H23 lung = test system: NCI-H23 lung
NCI-H460 lung = test system: NCI-H460 lung
NCI-H522 lung = test system: NCI-H522 lung
NCI/ADR-RES ovarian = test system: NCI/ADR-RES ovarian
OVCAR-3 ovarian = test system: OVCAR-3 ovarian
OVCAR-4 ovarian = test system: OVCAR-4 ovarian
OVCAR-5 ovarian = test system: OVCAR-5 ovarian
OVCAR-8 ovarian = test system: OVCAR-8 ovarian
PC-3 prostate = test system: PC-3 prostate
RPMI-8226 leukemia = test system: RPMI-8226 leukemia
RXF 393 renal = test system: RXF 393 renal
SF-268 CNS = test system: SF-268 CNS
SF-295 CNS = test system: SF-295 CNS
SF-539 CNS = test system: SF-539 CNS
SK-MEL-2 melanoma = test system: SK-MEL-2 melanoma
SK-MEL-28 melanoma = test system: SK-MEL-28 melanoma
SK-MEL-5 melanoma = test system: SK-MEL-5 melanoma
SK-OV-3 ovarian = test system: SK-OV-3 ovarian
SN12C renal = test system: SN12C renal
SNB-19 CNS = test system: SNB-19 CNS
SNB-75 CNS = test system: SNB-75 CNS
SR leukemia = test system: SR leukemia
SW-620 colon = test system: SW-620 colon
T-47D breast = test system: T-47D breast
TK-10 renal = test system: TK-10 renal
U251 CNS = test system: U251 CNS
UACC-257 melanoma = test system: UACC-257 melanoma
UACC-62 melanoma = test system: UACC-62 melanoma
UO-31 renal = test system: UO-31 renal

Measured: TGI

O=C(/C=C/NC(=O)OCc1ccccc1)OCc1ccccc1
> 100 µM: all assays above

CCC(=O)/C=C/c1ccccc1
89.2 µM: MOLT-4 leukemia
42.9 µM: KM12 colon
> 100 µM: all other assays above
